Reference: ChEMBL document CHEMBL6071190, “Discovery of BAY 2666605, a Molecular Glue for PDE3A and SLFN12” (ACS Med Chem Lett, 2024)

Tests used:
HeLa = assay: Antiproliferative activity against human HeLa cells incubated for 72 hrs by Cell Titer Glo luminescence assay; format: functional, cell-based
[1] = Selectivity ratio of IC50 for inhibition of full-length human PDE3A expressed in Sf9 cells to EC50 for antiproliferative activity against human HeLa cells
SK-MEL3 = assay: Antiproliferative activity against human SK-MEL3 cells incubated for 72 hrs by Cell Titer Glo luminescence assay; format: functional, cell-based; details: SK-MEL3, 72 h
[2] = target: cGMP-inhibited 3',5'-cyclic phosphodiesterase 3A (Homo sapiens, UniProt Q14432); assay: Inhibition of human full-length PDE3A expressed in Sf9 cells using [8-3H]adenosine 3', 5'-cyclic phosphate as substrate incubated for 60 mins by microbeta scintillation counting method
cGMP-inhibited 3',5'-cyclic phosphodiesterase 3A, sequence (Q14432 whole entry): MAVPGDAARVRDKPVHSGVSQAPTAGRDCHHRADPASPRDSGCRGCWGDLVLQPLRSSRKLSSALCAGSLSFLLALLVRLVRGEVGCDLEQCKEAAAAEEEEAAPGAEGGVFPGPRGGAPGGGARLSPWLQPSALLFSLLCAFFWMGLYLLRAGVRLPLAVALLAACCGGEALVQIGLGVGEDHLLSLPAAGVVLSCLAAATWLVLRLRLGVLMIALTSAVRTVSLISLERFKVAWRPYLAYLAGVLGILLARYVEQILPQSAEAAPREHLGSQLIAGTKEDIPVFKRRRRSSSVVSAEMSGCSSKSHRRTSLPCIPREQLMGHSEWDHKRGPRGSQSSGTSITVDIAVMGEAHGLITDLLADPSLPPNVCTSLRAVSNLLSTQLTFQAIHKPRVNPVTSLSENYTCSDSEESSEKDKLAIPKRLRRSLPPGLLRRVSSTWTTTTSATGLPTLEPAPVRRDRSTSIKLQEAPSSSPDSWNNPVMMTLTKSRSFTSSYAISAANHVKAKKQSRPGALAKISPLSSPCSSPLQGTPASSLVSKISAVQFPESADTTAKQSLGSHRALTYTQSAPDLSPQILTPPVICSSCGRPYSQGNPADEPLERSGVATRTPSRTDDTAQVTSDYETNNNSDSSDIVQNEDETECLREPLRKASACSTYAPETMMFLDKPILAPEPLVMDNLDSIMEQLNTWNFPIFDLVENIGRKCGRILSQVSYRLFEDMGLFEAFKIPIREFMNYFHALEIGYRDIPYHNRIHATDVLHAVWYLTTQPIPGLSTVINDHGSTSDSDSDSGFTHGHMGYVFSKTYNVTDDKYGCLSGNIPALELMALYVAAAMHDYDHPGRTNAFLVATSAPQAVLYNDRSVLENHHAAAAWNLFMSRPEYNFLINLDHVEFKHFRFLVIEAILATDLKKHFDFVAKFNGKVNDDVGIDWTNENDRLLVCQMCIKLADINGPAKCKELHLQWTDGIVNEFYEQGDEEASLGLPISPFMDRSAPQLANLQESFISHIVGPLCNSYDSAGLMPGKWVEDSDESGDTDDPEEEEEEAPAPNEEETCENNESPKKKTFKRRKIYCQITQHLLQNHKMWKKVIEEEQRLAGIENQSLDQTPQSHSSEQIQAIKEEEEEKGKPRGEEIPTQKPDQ

[3] = Metabolic stability in mouse hepatocytes assessed as bioavailability at 1 uM measured upto 90 mins by LC-MS/MS analysis; format: ADME, Hepatocyte
[4] = Metabolic stability in rat hepatocytes assessed as bioavailability at 1 uM measured upto 90 mins by LC-MS/MS analysis; format: ADME, Hepatocyte
[5] = Metabolic stability in dog hepatocytes assessed as bioavailability at 1 uM measured upto 90 mins by LC-MS/MS analysis; format: ADME, Canis lupus familiaris, Hepatocyte
[6] = Metabolic stability in human hepatocytes assessed as bioavailability at 1 uM measured upto 90 mins by LC-MS/MS analysis; format: ADME, Hepatocyte
[7] = Clearance in mouse blood; format: ADME, tissue-based

C[C@@H]1OC(=O)NN=C1c1ccc(-c2cccc(F)c2)c(C(F)(F)F)c1
EC50 (HeLa): 3.42 nM | Ratio IC50/EC50 [1]: 22 | EC50 (SK-MEL3): 5.85 nM

O=C1CCC(c2cc(Cl)c(N3CCOCC3)c(Cl)c2)=NN1
EC50 (HeLa): 6.9 nM | Ratio IC50/EC50 [1]: 8.5 | EC50 (SK-MEL3): 16.8 nM

O=C1CCC(c2ccc(N3CCOCC3)cc2)=NN1
EC50 (HeLa): 78.3 nM | IC50 [2]: > 1000 nM | Ratio IC50/EC50 [1]: >12 | EC50 (SK-MEL3): 101 nM

O=C1CCC(c2ccc(N3CCOCC3)c(F)c2)=NN1
EC50 (HeLa): 6.18 nM | IC50 [2]: 190 nM | Ratio IC50/EC50 [1]: 31 | EC50 (SK-MEL3): 19.9 nM | Fh at 1.5 h, 1 µM [3]: 80%

O=C1NN=C(c2ccc(-c3ccc(F)cc3)c(F)c2)CO1
EC50 (HeLa): 1.48 nM | IC50 [2]: 84 nM | Ratio IC50/EC50 [1]: 57 | EC50 (SK-MEL3): 3.6 nM | predicted hepatic bioavailability (Fh) from hepatocyte stability at 1 µM [4]: 84% | Fh at 1.5 h, 1 µM [3]: 54%

Cc1ccc(-c2ccc(C3=NNC(=O)O[C@H]3C)cc2C(F)(F)F)cn1
EC50 (HeLa): 4.37 nM | Ratio IC50/EC50 [1]: 8 | EC50 (SK-MEL3): 6.31 nM

O=C1NN=C(c2ccc(-c3ccc(F)cc3)c(OC(F)(F)F)c2)CO1
EC50 (HeLa): 5.67 nM | IC50 [2]: 222 nM | Ratio IC50/EC50 [1]: 39 | EC50 (SK-MEL3): 12.9 nM | predicted hepatic bioavailability (Fh) from hepatocyte stability at 1 µM [4]: 85% | Fh at 1.5 h, 1 µM [3]: 32% | Fh at 1.5 h, 1 µM [5]: 68% | hepatic bioavailability predicted from hepatocyte stability (Fh) at 1 µM [6]: 80%

C[C@@H]1OC(=O)NN=C1c1ccc(-c2ccccc2F)c(C(F)(F)F)c1
EC50 (HeLa): 8.19 nM | Ratio IC50/EC50 [1]: 18 | EC50 (SK-MEL3): 15.1 nM

Cc1cc(-c2ccc(C3=NNC(=O)O[C@H]3C)cc2C(F)(F)F)ccn1
EC50 (HeLa): 4.58 nM | Ratio IC50/EC50 [1]: 14 | EC50 (SK-MEL3): 6.13 nM

C[C@@H]1OC(=O)NN=C1c1ccc(-c2ccnc(N)c2)c(C(F)(F)F)c1
EC50 (HeLa): 0.69 nM | IC50 [2]: 76 nM | Ratio IC50/EC50 [1]: 109 | EC50 (SK-MEL3): 1.43 nM | predicted hepatic bioavailability (Fh) from hepatocyte stability at 1 µM [4]: 83% | Fh at 1.5 h, 1 µM [3]: 36% | clearance [7]: 42 mL/min/kg | Fh at 1.5 h, 1 µM [5]: 56% | hepatic bioavailability predicted from hepatocyte stability (Fh) at 1 µM [6]: 31%

O=C1NN=C(c2ccc(-c3ccc(F)cc3)c(C(F)(F)F)c2)CO1
EC50 (HeLa): 2.54 nM | Ratio IC50/EC50 [1]: 112 | EC50 (SK-MEL3): 7.95 nM | predicted hepatic bioavailability (Fh) from hepatocyte stability at 1 µM [4]: 84% | Fh at 1.5 h, 1 µM [3]: 38% | clearance [7]: 5.83 mL/min/kg | Fh at 1.5 h, 1 µM [5]: 44% | hepatic bioavailability predicted from hepatocyte stability (Fh) at 1 µM [6]: 70%

COc1ccc(-c2ccc(C3=NNC(=O)O[C@H]3C)cc2C(F)(F)F)cn1
EC50 (HeLa): 22.5 nM | Ratio IC50/EC50 [1]: 4 | EC50 (SK-MEL3): 39.8 nM

Cc1cc(C2=NNC(=O)OC2)ccc1-c1ccc(F)cc1
EC50 (HeLa): 4.94 nM | Ratio IC50/EC50 [1]: 44 | EC50 (SK-MEL3): 12.8 nM | predicted hepatic bioavailability (Fh) from hepatocyte stability at 1 µM [4]: 88% | Fh at 1.5 h, 1 µM [3]: 40% | Fh at 1.5 h, 1 µM [5]: 48% | hepatic bioavailability predicted from hepatocyte stability (Fh) at 1 µM [6]: 75%

C[C@@H]1OC(=O)NN=C1c1ccc(N2CCOCC2)c(C(F)(F)F)c1
EC50 (HeLa): 0.34 nM | IC50 [2]: 6.3 nM | Ratio IC50/EC50 [1]: 18 | EC50 (SK-MEL3): 0.77 nM | predicted hepatic bioavailability (Fh) from hepatocyte stability at 1 µM [4]: 84%

Cc1ccncc1-c1ccc(C2=NNC(=O)O[C@H]2C)cc1C(F)(F)F
EC50 (HeLa): 38.7 nM | Ratio IC50/EC50 [1]: 6 | EC50 (SK-MEL3): 54.2 nM

O=C1NN=C(c2ccc(N3CCOCC3)c(F)c2)CO1
EC50 (HeLa): 6.9 nM | IC50 [2]: 180 nM | Ratio IC50/EC50 [1]: 26 | EC50 (SK-MEL3): 15.6 nM | predicted hepatic bioavailability (Fh) from hepatocyte stability at 1 µM [4]: 94% | Fh at 1.5 h, 1 µM [3]: 47% | Fh at 1.5 h, 1 µM [5]: 100%

O=C1NN=C(c2ccc(N3CCC(F)(F)CC3)c(C(F)(F)F)c2)CO1
EC50 (HeLa): 1.59 nM | EC50 (SK-MEL3): 5.06 nM | predicted hepatic bioavailability (Fh) from hepatocyte stability at 1 µM [4]: 67% | Fh at 1.5 h, 1 µM [3]: 37% | Fh at 1.5 h, 1 µM [5]: 28%

C[C@@H]1CC(=O)NN=C1c1ccc(N2CCOCC2)c(F)c1
EC50 (HeLa): 0.68 nM | IC50 [2]: 12.7 nM | Ratio IC50/EC50 [1]: 18 | EC50 (SK-MEL3): 1.38 nM | predicted hepatic bioavailability (Fh) from hepatocyte stability at 1 µM [4]: 94%

C[C@@H]1OC(=O)NN=C1c1ccc(-c2ccc(O)cc2)c(C(F)(F)F)c1
EC50 (HeLa): 0.68 nM | IC50 [2]: 26.2 nM | Ratio IC50/EC50 [1]: 38 | EC50 (SK-MEL3): 1.14 nM

C[C@@H]1CC(=O)NN=C1c1ccc(N2CCCCC2)cc1
EC50 (HeLa): 1.72 nM | IC50 [2]: 217 nM | Ratio IC50/EC50 [1]: 126 | EC50 (SK-MEL3): 4.48 nM | predicted hepatic bioavailability (Fh) from hepatocyte stability at 1 µM [4]: 27%

C[C@@H]1OC(=O)NN=C1c1ccc(N2CCOCC2)c(F)c1
EC50 (HeLa): 1.83 nM | IC50 [2]: 43 nM | Ratio IC50/EC50 [1]: 23 | EC50 (SK-MEL3): 2.6 nM | predicted hepatic bioavailability (Fh) from hepatocyte stability at 1 µM [4]: 90%

C[C@@H]1CC(=O)NN=C1c1cc(F)c(N2CCOCC2)c(F)c1
EC50 (HeLa): 0.97 nM | IC50 [2]: 3.95 nM | Ratio IC50/EC50 [1]: 4 | EC50 (SK-MEL3): 2.07 nM | predicted hepatic bioavailability (Fh) from hepatocyte stability at 1 µM [4]: 90%

C[C@@H]1OC(=O)NN=C1c1ccc(N2CCN(C)CC2)c(C(F)(F)F)c1
EC50 (HeLa): 0.32 nM | IC50 [2]: 55 nM | Ratio IC50/EC50 [1]: 172 | EC50 (SK-MEL3): 0.82 nM | predicted hepatic bioavailability (Fh) from hepatocyte stability at 1 µM [4]: 11% | Fh at 1.5 h, 1 µM [3]: 18%

C[C@@H]1OC(=O)NN=C1c1ccc(-c2ccncc2)c(C(F)(F)F)c1
EC50 (HeLa): 0.6 nM | IC50 [2]: 67 nM | Ratio IC50/EC50 [1]: 112 | EC50 (SK-MEL3): 1.09 nM | predicted hepatic bioavailability (Fh) from hepatocyte stability at 1 µM [4]: 93% | Fh at 1.5 h, 1 µM [3]: 41%

C[C@@H]1CC(=O)NN=C1c1cc(F)c(N2CCOCC2)c(Cl)c1
EC50 (HeLa): 0.35 nM | IC50 [2]: 1.9 nM | Ratio IC50/EC50 [1]: 5.5 | EC50 (SK-MEL3): 0.9 nM | predicted hepatic bioavailability (Fh) from hepatocyte stability at 1 µM [4]: 58%

COc1ccc(-c2ccc(C3=NNC(=O)O[C@H]3C)cc2C(F)(F)F)cc1
EC50 (HeLa): 21.8 nM | Ratio IC50/EC50 [1]: 4.1 | EC50 (SK-MEL3): 37.7 nM

O=C1NN=C(c2ccc(N3CCOCC3)c(C(F)(F)F)c2)CO1
EC50 (HeLa): 1.87 nM | IC50 [2]: 23 nM | Ratio IC50/EC50 [1]: 12 | EC50 (SK-MEL3): 3.4 nM | predicted hepatic bioavailability (Fh) from hepatocyte stability at 1 µM [4]: 83%

O=C1NN=C(c2ccc(N3CCC(F)(F)CC3)c(F)c2)CO1
EC50 (HeLa): 1.55 nM | Ratio IC50/EC50 [1]: 178 | EC50 (SK-MEL3): 3.85 nM | predicted hepatic bioavailability (Fh) from hepatocyte stability at 1 µM [4]: 84% | Fh at 1.5 h, 1 µM [3]: 19% | clearance [7]: 91.7 mL/min/kg | hepatic bioavailability predicted from hepatocyte stability (Fh) at 1 µM [6]: 82%

C[C@@H]1OC(=O)NN=C1c1ccc(-c2ccc(Cl)cn2)c(C(F)(F)F)c1
EC50 (HeLa): 11.1 nM | IC50 [2]: > 1000 nM | Ratio IC50/EC50 [1]: >90 | EC50 (SK-MEL3): 0.25 nM | predicted hepatic bioavailability (Fh) from hepatocyte stability at 1 µM [4]: 78% | Fh at 1.5 h, 1 µM [3]: 53% | Fh at 1.5 h, 1 µM [5]: 24%
